Results reported in article PMC3814616, “BRAF inhibitors suppress apoptosis through off-target inhibition of JNK signaling” (eLife, 2013).
Entries after “also recorded” stand apart in the source; their conditions may differ.

Legend:
MLK3 (MAP3K11) = target: T1, MLK3 (MAP3K11) (Homo sapiens, UniProt Q16584); test: Quantitative competitive binding assay (KINOMEscan)
T1 construct: purchased KINOMEscan (DiscoveRx), San Diego, CA

[1] = system: cSCC (SRB1, SRB12, COLO16) and HaCaT cell lines; test: Long-term proliferation (serial passage and counting, at least 28 days); format: cell-based, human
phospho-JNK [2] = test: Western blot, UV-induced phospho-JNK in cSCC and HaCaT cell lines; format: cell-based, human; conditions: 1 μM, post-radiation
TAOK1 = target: T2, TAOK1 (Homo sapiens, UniProt Q7L7X3); design: method as in Tsai et al., 2008; conditions: ref Tsai et al., 2008; read-out: Published biochemical IC50; cited from earlier work
T2 construct: purchased KINOMEscan (DiscoveRx), San Diego, CA
T2 sequence (Q7L7X3 1-1001): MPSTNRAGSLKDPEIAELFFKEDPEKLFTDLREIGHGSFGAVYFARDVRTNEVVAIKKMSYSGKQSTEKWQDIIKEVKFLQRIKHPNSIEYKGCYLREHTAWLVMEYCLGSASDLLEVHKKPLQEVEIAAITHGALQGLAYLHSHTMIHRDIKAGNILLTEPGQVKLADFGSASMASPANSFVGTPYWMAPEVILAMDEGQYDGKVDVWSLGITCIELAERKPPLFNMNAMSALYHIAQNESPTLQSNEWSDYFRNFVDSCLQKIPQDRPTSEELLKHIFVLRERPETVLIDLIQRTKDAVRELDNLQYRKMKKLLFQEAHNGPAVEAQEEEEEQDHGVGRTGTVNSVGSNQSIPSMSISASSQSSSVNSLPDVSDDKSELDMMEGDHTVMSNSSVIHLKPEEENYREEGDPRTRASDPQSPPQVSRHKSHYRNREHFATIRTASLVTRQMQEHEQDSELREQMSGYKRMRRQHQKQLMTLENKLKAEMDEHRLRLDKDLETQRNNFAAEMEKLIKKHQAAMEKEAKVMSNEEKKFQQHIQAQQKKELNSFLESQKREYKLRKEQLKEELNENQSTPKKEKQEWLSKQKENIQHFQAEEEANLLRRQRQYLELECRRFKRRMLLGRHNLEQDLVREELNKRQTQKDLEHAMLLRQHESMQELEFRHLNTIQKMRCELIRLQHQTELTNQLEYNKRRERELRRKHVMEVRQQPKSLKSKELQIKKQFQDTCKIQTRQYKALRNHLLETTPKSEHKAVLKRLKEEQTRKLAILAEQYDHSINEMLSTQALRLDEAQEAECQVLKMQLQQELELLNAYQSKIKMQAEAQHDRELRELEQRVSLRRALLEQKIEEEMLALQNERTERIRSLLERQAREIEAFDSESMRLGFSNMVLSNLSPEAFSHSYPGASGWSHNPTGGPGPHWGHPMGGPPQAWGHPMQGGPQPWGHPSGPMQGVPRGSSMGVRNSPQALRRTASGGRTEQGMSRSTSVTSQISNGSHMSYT

phospho-JNK [3] = test: Western blot of epidermis of irradiated mice; conditions: oral gavage 40–80 mg/kg twice a day, 10 kJ/m^2 UVB
MAP4K4 = target: T3, MAP4K4 (Homo sapiens, UniProt O95819); design: method as in Bollag et al., 2010; conditions: ref Bollag et al., 2010; read-out: Published biochemical IC50; cited from earlier work
T3 construct: purchased KINOMEscan (DiscoveRx), San Diego, CA

MEK6 (MAP2K6) = target: T4, MEK6 (MAP2K6) (Homo sapiens, UniProt P52564); design: method as in Bollag et al., 2010; conditions: ref Bollag et al., 2010; read-out: Published biochemical IC50; cited from earlier work
T4 construct: purchased KINOMEscan (DiscoveRx), San Diego, CA

SRMS = SRMS (Homo sapiens, UniProt Q9H3Y6); design: method as in Bollag et al., 2010; conditions: ref Bollag et al., 2010; read-out: Published biochemical IC50; cited from earlier work
TAOK2 = target: T5, TAOK2 (Homo sapiens, UniProt Q9UL54); design: method as in Bollag et al., 2010; conditions: ref Bollag et al., 2010; read-out: Published biochemical IC50; cited from earlier work
T5 construct: purchased KINOMEscan (DiscoveRx), San Diego, CA
T5 sequence (Q9UL54 1-1235): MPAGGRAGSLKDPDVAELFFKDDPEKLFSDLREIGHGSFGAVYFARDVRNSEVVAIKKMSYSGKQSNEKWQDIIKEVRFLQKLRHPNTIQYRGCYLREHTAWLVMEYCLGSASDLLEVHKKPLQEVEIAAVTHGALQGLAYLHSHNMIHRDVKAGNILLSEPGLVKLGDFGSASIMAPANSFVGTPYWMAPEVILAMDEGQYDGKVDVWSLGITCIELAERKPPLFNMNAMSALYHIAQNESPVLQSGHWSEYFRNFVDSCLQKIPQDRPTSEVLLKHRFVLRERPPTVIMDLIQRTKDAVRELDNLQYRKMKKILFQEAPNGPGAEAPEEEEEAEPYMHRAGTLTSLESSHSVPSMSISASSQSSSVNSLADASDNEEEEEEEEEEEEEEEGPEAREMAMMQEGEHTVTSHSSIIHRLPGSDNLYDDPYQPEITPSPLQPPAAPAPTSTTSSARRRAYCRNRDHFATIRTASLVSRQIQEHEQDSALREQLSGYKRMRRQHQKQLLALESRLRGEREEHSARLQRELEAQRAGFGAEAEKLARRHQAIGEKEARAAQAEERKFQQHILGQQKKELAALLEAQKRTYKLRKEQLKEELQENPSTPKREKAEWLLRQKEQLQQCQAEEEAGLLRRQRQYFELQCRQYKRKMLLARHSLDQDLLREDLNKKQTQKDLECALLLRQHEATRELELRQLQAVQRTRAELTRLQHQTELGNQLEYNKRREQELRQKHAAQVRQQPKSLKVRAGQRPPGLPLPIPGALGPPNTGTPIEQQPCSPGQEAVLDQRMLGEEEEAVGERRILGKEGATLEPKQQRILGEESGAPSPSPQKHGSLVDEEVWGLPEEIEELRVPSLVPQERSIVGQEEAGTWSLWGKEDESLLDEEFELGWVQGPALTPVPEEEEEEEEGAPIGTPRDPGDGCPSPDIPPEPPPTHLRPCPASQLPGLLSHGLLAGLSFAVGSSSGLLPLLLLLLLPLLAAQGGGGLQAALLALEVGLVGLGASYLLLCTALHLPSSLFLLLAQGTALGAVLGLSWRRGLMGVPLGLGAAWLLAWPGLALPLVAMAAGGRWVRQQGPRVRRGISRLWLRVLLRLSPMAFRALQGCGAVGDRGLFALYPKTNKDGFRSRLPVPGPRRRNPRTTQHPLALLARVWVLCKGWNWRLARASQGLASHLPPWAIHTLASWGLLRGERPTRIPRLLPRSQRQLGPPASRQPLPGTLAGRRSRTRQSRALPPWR

TAOK3 = target: T6, TAOK3 (Homo sapiens, UniProt Q9H2K8); design: method as in Bollag et al., 2010; conditions: ref Bollag et al., 2010; read-out: Published biochemical IC50; cited from earlier work
T6 construct: purchased KINOMEscan (DiscoveRx), San Diego, CA
T6 sequence (Q9H2K8 whole entry): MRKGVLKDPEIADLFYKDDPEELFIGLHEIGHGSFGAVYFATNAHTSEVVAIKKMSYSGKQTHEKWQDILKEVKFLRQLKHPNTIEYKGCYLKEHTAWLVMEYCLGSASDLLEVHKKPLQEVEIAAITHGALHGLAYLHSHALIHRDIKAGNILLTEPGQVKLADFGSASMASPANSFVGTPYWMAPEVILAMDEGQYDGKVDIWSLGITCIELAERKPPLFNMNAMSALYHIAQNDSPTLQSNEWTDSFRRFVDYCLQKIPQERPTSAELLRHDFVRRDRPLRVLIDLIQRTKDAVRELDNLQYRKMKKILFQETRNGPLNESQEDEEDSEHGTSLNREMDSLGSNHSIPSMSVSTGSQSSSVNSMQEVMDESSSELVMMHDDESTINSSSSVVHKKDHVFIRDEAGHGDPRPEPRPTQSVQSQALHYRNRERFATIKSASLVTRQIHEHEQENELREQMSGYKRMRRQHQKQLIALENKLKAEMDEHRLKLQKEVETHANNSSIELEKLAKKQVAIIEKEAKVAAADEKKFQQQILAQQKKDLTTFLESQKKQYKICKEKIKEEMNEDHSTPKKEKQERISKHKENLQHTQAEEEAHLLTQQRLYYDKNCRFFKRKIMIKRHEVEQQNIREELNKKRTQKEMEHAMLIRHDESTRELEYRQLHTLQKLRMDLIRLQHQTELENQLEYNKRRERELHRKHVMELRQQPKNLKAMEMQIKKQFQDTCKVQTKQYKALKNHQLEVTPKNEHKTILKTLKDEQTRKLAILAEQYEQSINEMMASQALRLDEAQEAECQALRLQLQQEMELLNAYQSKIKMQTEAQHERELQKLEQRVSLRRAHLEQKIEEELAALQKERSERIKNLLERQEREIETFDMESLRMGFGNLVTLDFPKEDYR

T1 sequence (Q16584 whole entry): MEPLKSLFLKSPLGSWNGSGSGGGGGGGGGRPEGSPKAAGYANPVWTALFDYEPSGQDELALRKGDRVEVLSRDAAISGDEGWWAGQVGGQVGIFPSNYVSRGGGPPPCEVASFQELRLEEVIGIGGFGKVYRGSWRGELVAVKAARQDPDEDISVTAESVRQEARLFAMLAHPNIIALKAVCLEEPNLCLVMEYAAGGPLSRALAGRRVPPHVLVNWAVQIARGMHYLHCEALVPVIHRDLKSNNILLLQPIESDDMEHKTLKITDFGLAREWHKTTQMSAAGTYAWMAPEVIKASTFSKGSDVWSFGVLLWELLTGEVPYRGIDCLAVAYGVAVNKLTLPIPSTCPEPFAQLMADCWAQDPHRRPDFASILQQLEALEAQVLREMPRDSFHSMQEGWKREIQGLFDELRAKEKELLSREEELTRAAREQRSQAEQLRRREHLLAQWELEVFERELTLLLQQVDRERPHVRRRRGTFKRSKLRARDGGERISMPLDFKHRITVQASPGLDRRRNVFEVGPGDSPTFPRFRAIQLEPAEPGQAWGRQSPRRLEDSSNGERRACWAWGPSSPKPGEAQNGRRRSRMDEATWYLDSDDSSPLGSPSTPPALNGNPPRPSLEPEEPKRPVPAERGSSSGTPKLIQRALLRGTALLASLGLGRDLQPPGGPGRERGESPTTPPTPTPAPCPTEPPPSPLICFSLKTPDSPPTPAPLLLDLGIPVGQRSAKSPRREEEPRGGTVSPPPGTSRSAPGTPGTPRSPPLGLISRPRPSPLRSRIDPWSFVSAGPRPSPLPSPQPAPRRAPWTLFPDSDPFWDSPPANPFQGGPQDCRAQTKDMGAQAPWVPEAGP
T3 sequence (O95819 whole entry): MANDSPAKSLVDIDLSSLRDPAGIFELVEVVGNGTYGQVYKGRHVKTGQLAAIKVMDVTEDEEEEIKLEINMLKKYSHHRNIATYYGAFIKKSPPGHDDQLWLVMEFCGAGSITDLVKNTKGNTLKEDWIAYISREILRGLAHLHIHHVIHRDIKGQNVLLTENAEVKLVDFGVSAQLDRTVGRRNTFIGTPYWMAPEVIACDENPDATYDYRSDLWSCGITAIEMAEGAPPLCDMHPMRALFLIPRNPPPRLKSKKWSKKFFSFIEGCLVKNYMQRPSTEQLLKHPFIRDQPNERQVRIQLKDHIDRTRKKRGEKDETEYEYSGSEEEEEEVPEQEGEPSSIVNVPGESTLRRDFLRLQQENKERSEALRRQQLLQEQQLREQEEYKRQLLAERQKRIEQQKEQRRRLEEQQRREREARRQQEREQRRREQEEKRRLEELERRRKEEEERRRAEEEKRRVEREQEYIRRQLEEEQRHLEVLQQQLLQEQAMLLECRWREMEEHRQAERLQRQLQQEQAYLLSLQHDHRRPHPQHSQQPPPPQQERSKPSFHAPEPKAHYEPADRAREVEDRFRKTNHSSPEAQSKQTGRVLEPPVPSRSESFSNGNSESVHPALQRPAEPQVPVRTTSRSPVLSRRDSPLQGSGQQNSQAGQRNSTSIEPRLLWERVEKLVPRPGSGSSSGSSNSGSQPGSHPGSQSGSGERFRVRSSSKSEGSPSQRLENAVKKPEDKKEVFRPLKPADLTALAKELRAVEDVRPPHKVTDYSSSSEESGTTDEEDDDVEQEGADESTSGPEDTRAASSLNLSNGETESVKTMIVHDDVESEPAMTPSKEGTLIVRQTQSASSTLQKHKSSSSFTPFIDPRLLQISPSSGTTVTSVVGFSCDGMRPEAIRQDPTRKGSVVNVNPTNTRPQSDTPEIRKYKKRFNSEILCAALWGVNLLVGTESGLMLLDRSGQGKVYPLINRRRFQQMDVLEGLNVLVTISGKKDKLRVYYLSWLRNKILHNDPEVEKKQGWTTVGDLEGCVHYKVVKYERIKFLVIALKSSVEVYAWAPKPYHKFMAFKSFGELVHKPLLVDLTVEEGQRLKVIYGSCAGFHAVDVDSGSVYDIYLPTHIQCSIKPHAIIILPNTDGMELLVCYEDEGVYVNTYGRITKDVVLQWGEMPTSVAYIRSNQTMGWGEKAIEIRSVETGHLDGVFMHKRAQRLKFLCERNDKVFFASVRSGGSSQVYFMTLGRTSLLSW
T4 sequence (P52564 whole entry): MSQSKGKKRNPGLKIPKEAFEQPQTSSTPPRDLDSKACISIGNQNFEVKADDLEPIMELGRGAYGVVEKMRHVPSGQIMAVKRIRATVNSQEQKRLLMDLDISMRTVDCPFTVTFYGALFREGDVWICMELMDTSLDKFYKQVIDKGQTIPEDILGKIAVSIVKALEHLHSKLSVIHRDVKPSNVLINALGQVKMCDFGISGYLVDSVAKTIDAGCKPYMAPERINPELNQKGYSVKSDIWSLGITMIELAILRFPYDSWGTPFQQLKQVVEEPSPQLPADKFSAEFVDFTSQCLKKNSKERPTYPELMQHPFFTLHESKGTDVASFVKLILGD
SRMS, sequence (Q9H3Y6 whole entry): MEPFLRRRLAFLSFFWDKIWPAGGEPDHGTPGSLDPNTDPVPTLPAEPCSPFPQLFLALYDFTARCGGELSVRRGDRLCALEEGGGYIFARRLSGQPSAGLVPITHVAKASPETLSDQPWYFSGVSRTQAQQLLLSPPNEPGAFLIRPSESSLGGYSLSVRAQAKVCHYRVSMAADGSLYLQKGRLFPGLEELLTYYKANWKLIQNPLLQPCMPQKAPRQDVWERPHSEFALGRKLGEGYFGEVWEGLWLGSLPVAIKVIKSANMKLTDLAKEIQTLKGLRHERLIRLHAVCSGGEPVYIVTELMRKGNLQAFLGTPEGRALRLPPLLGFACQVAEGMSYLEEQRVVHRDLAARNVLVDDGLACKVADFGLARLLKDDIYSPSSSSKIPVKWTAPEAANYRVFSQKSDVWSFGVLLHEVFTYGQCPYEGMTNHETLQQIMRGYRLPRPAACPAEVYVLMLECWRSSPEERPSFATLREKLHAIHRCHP

Row | SMILES | remaining binding at 0.05 µM (MLK3 (MAP3K11); read-out: Percent control (50 nM)) | remaining binding at 0.2 µM (MLK3 (MAP3K11); read-out: Percent control (200 nM)) | remaining binding at 1 µM (MLK3 (MAP3K11); read-out: Percent control (1000 nM)) | remaining binding at 10 µM (MLK3 (MAP3K11); read-out: Percent control (10 μM)) | proliferation of SRB12 and HaCaT cells ([1]; 1 μM, at least 28 days) | proliferation, all cells ([1]; 5 μM, at least 28 days) | proliferative advantage ([1]; cells without oncogenic RAS or BRAF mutations) | UV-induced phospho-JNK levels (phospho-JNK [2]) | IC50 (TAOK1) | UV-induced phospho-JNK in epidermis (phospho-JNK [3]) | IC50 (MAP4K4) | IC50 (MEK6 (MAP2K6)) | IC50 (SRMS) | IC50 (TAOK2) | IC50 (TAOK3)
1 | CCCS(=O)(=O)Nc1ccc(F)c(C(=O)c2c[nH]c3ncc(Cl)cc23)c1F [PLX4720] | 100% | 100% | 100% | 100% | slight decrement in the proliferation | decreased proliferation | no significant proliferative advantage | significantly suppressed; also recorded: potently suppresses | > 5 µM | significantly suppressed |  |  |  |  | 
2 | CCCS(=O)(=O)Nc1ccc(F)c(C(=O)c2c[nH]c3ncc(-c4ccc(Cl)cc4)cc23)c1F [vemurafenib] |  |  |  |  |  |  |  |  |  |  | > 1 µM | > 1 µM | 0.018 µM | > 1 µM | > 1 µM
